# According to patent publication US20220062418A1, “TUMOR TARGETING VITAMIN B12 DERIVATIVES FOR X-RAY ACTIVATED CHEMOTHERAPY” (THE TRUSTEES OF DARTMOUTH COLLEGE, priority 2018, published 2022):
# System: tumor stroma
# Assay: Losartan effect on stroma and perfusion in two tumor models
# Type: in vivo
# Settings: preliminary data
# Text: In an alternative embodiment, we add transcobalamin II to enhance uptake of cobalamin derivatives into tissue. […] Drug delivery is thought to be impeded by the dense stroma of pancreatic adenocarcinoma, and so delivery of cobalamin conjugates could be limited by this issue. […] In an alternative embodiment we treat with Losartan for 10 days prior to cobalamin-drug conjugate treatment to enhance the delivery of this platform to the PDAC tumor stroma.
smiles,measurement,value
CCCCc1nc(Cl)c(CO)n1Cc1ccc(-c2ccccc2-c2nn[nH]n2)cc1 [Losartan],microvessel perfusion,increases in microvessel perfusion
same,stromal formation,reduce stromal formation
